Test results as given in US20090149536A1, “4-OXO-(ISO)TRETINOIN FOR THE TOPICAL TREATMENT OF SEVERE DERMATOLOGICAL DISORDERS” (priority 2005, published 2009).
Where two headings read alike, the source gives them in different places.

Tests used:
[1] = test system: lipogenesis in epidermis; assay: study of lipogenesis in skin biopsies (14C-Dextrose integrated in epidermis lipids); assay type: in vivo, Fuzzy rats
Procedure: At the end of the treatment, animals were anaesthetized with Pentobarbital 70 mg/kg by IP route. For each rat, two biopsies of 3-mm of dorsal skin per treated region with test substances were collected. Each biopsy was weighed. Rats were sacrificed by inhalation of CO2.
The biopsies (from 175 to 466 mg) were incubated in 1 ml of KRB in presence of 5 μCi D-[U-^14C]-Dextrose/ml at 37° C., 5% CO2 for 3 h.
After incubation, biopsies were rinsed 3 times with 3 ml of KRB. Dermis and epidermis were separated according to method described by Levang A. K. et al..
So, skin biopsies were soaked in water at 60° C. for 45 s. The skin was then removed and blotted dry and pinned with the dermal skin side down. The epidermis and dermis were separated by scrapping and epidermis was weighted.
Each fraction (100 mg) epidermis was cut into small fragments by using scalpels. Fragments were homogenized with chloroform:methanol [(2:1; v:v), Ref. C2432, batch No. 055K0070, Sigma, France: Ref M3641-1L, batch No. 104K3641, Sigma, France] according to the ratio 50 mg of tissue/ml of chloroform:methanol (2:1; v:v) with Potter-Elvehjem type of homogenizer (Ref. 48780, Dutscher, France).
Then, the mixture was washed with 0.2 volume of water. Two phases were separated by centrifugation during 20 min at 800 g.
The rate of lipid extraction was calculated as following: • R=(dpm[4-14C]Cholesterol after extraction)/dpm[4-14C]Cholesterol before extraction×100
The lipogenesis was evaluated as the number of dpm/100 mg tissue. • Lipogenesis=cpm×R×AS (D-[U-^14C]-Dextrose)
At the end of treatment (D25), rats were anaesthetized, skin biopsies were collected and lipogenesis was assessed. Briefly, biopsies were incubated with ^14C-Dextrose in Krebs-Ringer buffer for 3 h at 37° C., 5% CO2. After separation of dermis and epidermis, total lipids were extracted from epidermis. Radioactivity was counted using a β-counter.

[2] = test system: sebaceous gland size; assay: study of sebaceous gland size in skin biopsies (histology); assay type: in vivo, Fuzzy rats; details: D25
Procedure: The other biopsies were transferred in fixative solution of 4% Paraformaldehyde Fixative (PAF; Ref. 1.04003.5000, Merck, France) solution for further paraffin-embedding and sebaceous gland size analysis.
The size of sebaceous gland was evaluated by histological study of biopsies.
Biopsies fixed in PAF 4% were paraffin-embedded by the ASP 300 (Leica) automat according to the following procedure:
Histological sections of biopsies were realized (5 sections/biopsy).
Each one was colored by Hemalun/Eosin/Safran OTTIX coloration method according to the following protocol:
A microscopic observation by using a CKX41 light microscope (Olympus, France) was performed. Each sebaceous gland within 1 section/biopsy was numerized with a digital camera (Pwershot A80, Canon) and was measured by using ImageJ software 1.32j.
Each sebaceous gland within 1 section/biopsy was numerized with a digital camera (Pwershot A80, Canon) and was measured by using ImageJ software 1.32j. The mean of gland size was calculated for each group.
At the end of treatment (D25; Oct. 13, 2006), rats were anaesthetized, skin biopsies were collected and embedded in paraffin before being stained by an hematoxylin/eosin solution. Biopsies were then observed and numerized by using a microscope. All sebaceous glands within a biopsy were measured.

[3] = test system: skin; details: in human, applied topically as cream; cited from earlier work
[4] = test system: hairless ("fuzzy") rats; details: nontoxic dosages (no body weight loss), cited from earlier work
[5] = test system: hairless mice; details: nontoxic dosages (no body weight loss); cited from earlier work
[6] = test system: severe acne; details: oral; cited from earlier work
[7] = test system: sebaceous gland size and sebum production; details: topical versus oral; cited from earlier work
[8] = test system: dermal lipogenese and sebum production; details: topical; cited from earlier work
[9] = in vivo
Description: Suitable dosages are described herein below and can be determined by a doctor based on usual parameters like e.g. the weight and age of the patient, and the current status of the disease.

[10] = test system: severe acne on back or chest; details: 2 g cream, 0.5% 4-Oxotretinoin or up to 1% 4-Oxo-Isotretinoin, topical on back, 4 weeks minimum; Leeds grade 5 to 8
Description: Fifteen male patients aged between 18 and 65 with severe acne on back or chest rated a grade of 5 to 8 according to the Leeds revised acne grading system (Journal of Dermatological Treatment (1989) 9, 215-220) are enrolled in a pilot study.
After completion of the treatment, the grade of the acne in the designated treatment area is once more determined and compared with the surrounding area of the skin.

[11] = test system: skin
Description: Observations and examinations included clinical monitoring of skin reaction and histopathological examination of excised skin specimen at study end.

[12] = topical 1.5% 4-oxo-tretinoin or 2% 4-oxo-isotretinoin, n=5 per compound, serial samples
[13] = test system: sebum excretion rate; details: cited from earlier work
[14] = 10 mg/kg PO, (Q1DX5)×4 weeks, D25
[15] = 0.1% topical, 0.025 mg/2 cm^2, (Q1DX5)×4 weeks, D25
[16] = 0.5% topical, 0.125 mg/2 cm^2, (Q1DX5)×4 weeks, D25
[17] = 0.1% topical, 0.025 mg/2 cm^2, (Q1DX5)×4 weeks
[18] = 0.2% topical, 0.050 mg/2 cm^2, (Q1DX5)×4 weeks, D25

CC1=C(/C=C/C(C)=C/C=C/C(C)=C\C(=O)O)C(C)(C)CCC1 [13-cis-RA, 13-cis retinoic acid, reference compound]
Mean DPM ± SD, Epidermis (100 mg) [1, 14]: 5188 ± 1875 DPM
Mean pmole 14C-dextrose ± SD integrated in 100 mg of tissue (epidermis) [1, 14]: 6.55±2.38 pmole of 14C-Dextrose/100 mg
change of lipogenesis in epidermis versus vehicle group ([1]; 10 mg/kg PO, (Q1DX5)×4 weeks, p<0.05): −33%
activity at 10 mg/kg ([1]; Rattus norvegicus, 672 h, 10 mg/kg PO, (Q1DX5)×4 weeks, D25, read-out: lipogenesis in epidermis, percent of control group): 67%
mean sebaceous gland size, Mean ± SD ([2]; 10 mg/kg PO, (Q1DX5)×4 weeks): 25493±17065 pixel^2
activity at 10 mg/kg ([2]; Rattus norvegicus, 672 h, 10 mg/kg PO, (Q1DX5)×4 weeks, read-out: sebaceous gland size, percent of control group): 83.8%
strength of topical cream that showed local irritation [3]: 0.1%
sebosuppressive effect after topical administration ([4]; listed as 13-cis retinoic acid): no detectable sebosuppressive effects
sebosuppressive effect after topical administration ([4]; listed as 13-cis-retinoic acid): substantially no detectable sebosuppressive activity
sebosuppressive effect after topical administration [5]: no detectable sebosuppressive effects
patients with severe acne reaching long-term remission [6]: 80%
reduction of effectiveness in reducing sebaceous gland size and suppressing sebum production, topical compared to oral administration [7]: up to 90%
influence on the dermal lipogenese and sebum production [8]: Neither topical tretinoin nor topical isotretinoin have been found to have an influence

CC1=C(/C=C/C(C)=C/C=C/C(C)=C\C(=O)O)C(C)(C)CCC1=O [4-oxo-isotretinoin, 4-oxo-13-cis-retinoic acid]
endogenous plasma level [9]: about 4.85±3.89 ng/mL
clinical rating of the acne in the treated area compared with untreated skin [10]: reduces the clinical rating of the acne in the treated area significantly
Mean DPM ± SD, Epidermis (100 mg) [1, 15]: 5499 ± 2599 DPM
Mean pmole 14C-dextrose ± SD integrated in 100 mg of tissue (epidermis) [1, 15]: 6.95±3.31 pmole of 14C-Dextrose/100 mg
lipogenesis in epidermis, percent of control group [1, 15]: 71%
Mean pmole 14C-dextrose ± SD integrated in 100 mg of tissue (epidermis) ([1]; 0.1% topical, 0.025 mg/2 cm^2, (Q1DX5)×4 weeks, D25, listed as 4-Oxo-isotretinoin): 6.95 ± 3.31 pmole of 14C-Dextrose/100 mg
Mean DPM ± SD, Epidermis (100 mg) [1, 16]: 6524 ± 1792 DPM
Mean pmole 14C-dextrose ± SD integrated in 100 mg of tissue (epidermis) [1, 16]: 8.25±2.28 pmole of 14C-Dextrose/100 mg
lipogenesis in epidermis, percent of control group [1, 16]: 84%
Mean pmole 14C-dextrose ± SD integrated in 100 mg of tissue (epidermis) ([1]; 0.5% topical, 0.125 mg/2 cm^2, (Q1DX5)×4 weeks, D25, listed as 4-Oxo-isotretinoin): 8.25 ± 2.28 pmole of 14C-Dextrose/100 mg
mean sebaceous gland size, Mean ± SD [2, 17]: 24988±15931 pixel^2
sebaceous gland size, percent of control group [2, 17]: (82%)
mean sebaceous gland size, Mean ± SD ([2]; 0.1% topical, 0.025 mg/2 cm^2, (Q1DX5)×4 weeks, listed as 4-Oxo-isotretinoin): 24998 ± 15931 pixel^2
skin irritation (clinical monitoring of skin reaction) ([11]; any concentration (0.1, 0.5, 1 or 2%), once daily, 5 days per week, 4 weeks, acetone/ethanol (1:1)): No signs of skin irritation
inter-conversion of the 4-oxo isomers: skin and strip levels of both isomers [12]: skin exposure to both 4-oxo-isotretinoin and 4-oxo-tretinoin could be demonstrated
sebum excretion rate ([13]; applied orally): reduces the sebum excretion rate
pharmacological activity relative to parent drug isotretinoin ([13]; in vivo): only half as active pharmacologically

CC1=C(/C=C/C(C)=C/C=C/C(C)=C/C(=O)O)C(C)(C)CCC1 [tretinoin, all-trans retinoic acid]
strength of topical cream that showed local irritation [3]: 0.05%
influence on the dermal lipogenese and sebum production [8]: Neither topical tretinoin nor topical isotretinoin have been found to have an influence

CC1=C(/C=C/C(C)=C/C=C/C(C)=C/C(=O)O)C(C)(C)CCC1=O [4-oxo-tretinoin, 4-oxo-all-trans-retinoic acid]
endogenous plasma level [9]: about 9.88±7.57 ng/mL
clinical rating of the acne in the treated area compared with untreated skin [10]: reduces the clinical rating of the acne in the treated area significantly
Mean DPM ± SD, Epidermis (100 mg) [1, 15]: 7024 ± 1970 DPM
Mean pmole 14C-dextrose ± SD integrated in 100 mg of tissue (epidermis) [1, 15]: 9.10±5.23 pmole of 14C-Dextrose/100 mg
lipogenesis in epidermis, percent of control group [1, 15]: 91%
Mean pmole 14C-dextrose ± SD integrated in 100 mg of tissue (epidermis) ([1]; 0.1% topical, 0.025 mg/2 cm^2, (Q1DX5)×4 weeks, D25, listed as 4-Oxo-tretinoin): 8.89 ± 2.51 pmole of 14C-Dextrose/100 mg
Mean DPM ± SD, Epidermis (100 mg) [1, 18]: 4993 ± 2219 DPM
Mean pmole 14C-dextrose ± SD integrated in 100 mg of tissue (epidermis) [1, 18]: 6.30±2.80 pmole of 14C-Dextrose/100 mg
lipogenesis in epidermis, percent of control group [1, 18]: 64%
Mean pmole 14C-dextrose ± SD integrated in 100 mg of tissue (epidermis) ([1]; 0.2% topical, 0.050 mg/2 cm^2, (Q1DX5)×4 weeks, D25, listed as 4-Oxo-tretinoin): 6.30 ± 2.80 pmole of 14C-Dextrose/100 mg
histopathological examination of treated skin areas ([11]; concentration-dependent, once daily, 5 days per week, 4 weeks): concentration-dependent hyperkeratosis, acanthosis and hypertrophy/hyperplasia of sebaceous glands
skin irritation (clinical: reddening (erythema) and occasional scaling) ([11]; concentrations ≧0.5% (tested 0.1 to 1.5%), once daily, 5 days per week, 4 weeks): dose-dependent slight to moderate skin irritation
histopathological examination of treated skin areas: necrosis ([11]; concentrations ≧1%): occasional necrosis
inter-conversion of the 4-oxo isomers: skin and strip levels of both isomers [12]: skin exposure to both 4-oxo-isotretinoin and 4-oxo-tretinoin could be demonstrated
